In brackets after ≈: the same amount, converted by molar mass.
What was measured:
[1] = test system: Mycobacterium tuberculosis; assay: Antitubercular activity against Mycobacterium tuberculosis H37Rv; format: functional
Mycobacterium avium = assay: Antitubercular activity against Mycobacterium avium by MAC assay; format: functional
[2] = test system: Mycobacterium tuberculosis; assay: Antitubercular activity against Mycobacterium tuberculosis; format: functional, organism-based
[3] = test system: Mycobacterium tuberculosis; assay: Antitubercular activity against Mycobacterium tuberculosis CSU93
[4] = Drug uptake in Mus musculus (mouse) serum at 100 mg/kg, po at 0.25 hr; format: ADME, organism-based; set-up: dose 100 mg/kg, route oral; conditions: read-out: Drug uptake
[5] = Oral bioavailability in healthy Homo sapiens (human); format: ADME, organism-based; conditions: in vivo
[6] = Elimination half life in healthy Homo sapiens (human); format: ADME, organism-based; conditions: in vivo, read-out: beta t1/2 (converted)
Homo sapiens = organism: Homo sapiens; assay: Toxicity in healthy Homo sapiens (human); format: organism-based; conditions: in vivo

Row | SMILES | IC50 [2] | MIC90 [2] | also measured
1 | COc1nc2ccc(Br)cc2cc1[C@@H](c1ccccc1)[C@@](O)(CCN(C)C)c1cccc2ccccc12 [BEDAQUILINE] |  |  | MIC [1]: < 0.5 µg/mL
2 | OC(C1=CCC=CN1)c1cc(-c2ccc(Cl)cc2)nc2c1ccc1ccccc12 (stereo not drawn) |  |  | MIC50 (Mycobacterium avium): 1 µg/mL (≈ 2.51 µM)
3 | C[C@H]1CN(c2c(F)cc3c(=O)c(C(=O)O)cn(C4CC4)c3c2OC(F)(F)F)CCN1.Cl | 0.25 µg/mL |  | 
4 | OC(c1cc(C(F)(F)F)nc2c(C(F)(F)F)cccc12)C1CCCCN1 (stereo not drawn) [MEFLOQUINE] |  |  | MIC50 (Mycobacterium avium): 16 µg/mL (≈ 42.3 µM)
5 | COc1c(N2C[C@@H]3CCCN[C@@H]3C2)c(F)cc2c(=O)c(C(=O)O)cn(C3CC3)c12 [MOXIFLOXACIN] |  |  | MIC [3]: 0.25 µg/mL (≈ 0.623 µM); concentration at 0.25 h [4]: 7800 ng/mL
6 | C[C@H]1NCc2cc(-c3ccc4c(=O)c(C(=O)O)cn(C5CC5)c4c3OC(F)F)ccc21 [GARENOXACIN] |  | 0.0625 µg/mL (≈ 0.147 µM) | 
7 | N[C@@H]1[C@H]2CN(c3nc4c(cc3F)c(=O)c(C(=O)O)cn4-c3ccc(F)cc3F)C[C@@H]12 [TROVAFLOXACIN] |  | 1 µg/mL (≈ 2.4 µM) | 
8 | OC(C1=CCC=CN1)c1cc(C2C3CC4CC(C3)CC2C4)nc2c1ccc1ccccc12 (stereo not drawn) |  |  | MIC50 (Mycobacterium avium): 2 µg/mL (≈ 4.73 µM)
9 | N[C@@H]1CN(c2c(F)cc3c(=O)c(C(=O)O)cn([C@@H]4C[C@@H]4F)c3c2Cl)CC12CC2 [SITAFLOXACIN ANHYDROUS] |  | 0.2 µg/mL (≈ 0.488 µM) | bioavailability [5]: ≥ 70%; half-life [6]: 4.4 h
10 | Cc1c(F)c(N2CCNC(C)C2)cc2c1c(=O)c(C(=O)O)cn2C1CC1 (stereo not drawn) [GREPAFLOXACIN] |  | 1 µg/mL (≈ 2.78 µM) | 
11 | CNC1CCCN(c2c(F)cc3c(=O)c(C(=O)O)cn(C4CC4)c3c2OC)C1 (stereo not drawn) [BALOFLOXACIN] | 0.5 µg/mL (≈ 1.28 µM) |  | 
12 | C[C@H]1COc2c(N3CCN(C)CC3)c(F)cc3c(=O)c(C(=O)O)cn1c23.C[C@H]1COc2c(N3CCN(C)CC3)c(F)cc3c(=O)c(C(=O)O)cn1c23.O [LEVOFLOXACIN] |  | 1 µg/mL | 
13 | C[C@@H]1CN(c2c(F)c(N)c3c(=O)c(C(=O)O)cn(C4CC4)c3c2F)C[C@H](C)N1 [SPARFLOXACIN] | 0.25 µg/mL (≈ 0.637 µM) |  | 
14 | CC1COc2c(N3CCN(C)CC3)c(F)cc3c(=O)c(C(=O)O)cn1c23 (racemic) [OFLOXACIN] | 0.5 µg/mL (≈ 1.38 µM) |  | 
15 | CCn1cc(C(=O)O)c(=O)c2cc(F)c(N3CCNCC3)cc21 [NORFLOXACIN] | 8 µg/mL (≈ 25.1 µM) |  | 
16 | CO/N=C1\CN(c2nc3c(cc2F)c(=O)c(C(=O)O)cn3C2CC2)CC1CN (stereo not drawn) [GEMIFLOXACIN] |  | 8 µg/mL (≈ 20.5 µM) | MNTD (Homo sapiens): 800 mg; bioavailability [5]: 70%; half-life [6]: 7.4 h
17 | O=C(O)c1cn(C2CC2)c2cc(N3CCNCC3)c(F)cc2c1=O [CIPROFLOXACIN] | 0.5 µg/mL (≈ 1.51 µM) |  | 

Reference: ChEMBL document CHEMBL3046014, “Quinolone derivatives as antitubercular drugs” (Med Chem Res, 2013)
